Assays:
[1] = system: bicistronic genotype 1b replicon in Huh 7.5 cells; test: HCV replicon assay, genotype 1b (Huh7.5 Con1/SG-Neo(I)hRluc2aUb cell line, Renilla luciferase readout); type: cell-based; conditions: Hepatitis C virus, Huh7.5, 72 h, read-out: Gt1b IC50
Text: (§1) Anti-viral activity of the compounds of the invention was monitored using an HCV replicon assay. The Huh7.5 Con1/SG-Neo(I)hRluc2aUb cell line persistently expressing a bicistronic genotype 1b replicon in Huh 7.5 cells and the Huh7.5/J6/JFH1/EMCVIRES/hRlucNeo cell line expressing a bicistronic genotype 2a replicon in Huh 7.5 cells were obtained from Apath LLC. These cell lines were used to test inhibition of replicon levels by test compound using Renilla luciferase enzyme activity readout as a measure of viral replication efficiency.
(§2) Briefly, 7000-7500 cells were seeded in 96 well black clear bottom plates and allowed to adhere overnight. The next day each compound was added in triplicate to the cells at the desired concentration with a final DMSO concentration of 0.5%. Cells in media alone and cells incubated without drug with 0.5% DMSO served as controls. The plates were incubated for 72h at 37° C. prior to running the luciferase assay. Enzyme activity was measured using Renilla-Glo Luciferase Assay kit from Promega as per the manufacturer's instructions. The following equation was used to generate the percent inhibition value for each test concentration.
(§3) The IC50 value was determined using GraphPad Prism and the following equation: Y=Bottom+(Top−Bottom)(1+10^((Log IC50−X)*Hill slope))
(§4) IC50/values % inhibitions of compounds were determined 2-3 times in the replicon assays.

[2] = system: bicistronic genotype 2a replicon in Huh 7.5 cells; test: HCV replicon assay, genotype 2a (Huh7.5/J6/JFH1/EMCVIRES/hRlucNeo cell line, Renilla luciferase readout); type: cell-based; conditions: Hepatitis C virus, Huh7.5, 72 h, read-out: Gt2a IC50
Text: as §1, §2, §3, §4

Row | SMILES | IC50 [1] | IC50 [2]
1 | COC(=O)N[C@H](C(=O)N1CCC[C@H]1c1ncc(-c2ccc3c(c2)CCc2cc(-c4cnc([C@@H]5CCCN5C(=O)[C@@H](NC(=O)OC)C(C)C)[nH]4)sc2-3)[nH]1)C(C)C [Compound 5, dimethyl((2S,2′S)-((2S,2′S)-2,2′-(5,5′-(4,5-dihydronaphtho[1,2-b]thiophene-2,7-diyl)bis(1H-imidazole-5,2-diyl))bis(pyrrolidine-2,1-diyl))bis(3-methyl-1-oxobutane-2,1-diyl))dicarbamate] | 0.001 to 0.999 nM | 0.001 to 0.999 nM
2 | COC(=O)N[C@H](C(=O)N1CCC[C@H]1c1ncc(-c2ccc3c(ccc4cc(-c5cnc([C@@H]6CCCN6C(=O)[C@@H](NC(=O)OC)C(C)C)[nH]5)sc43)c2)[nH]1)C(C)C [Compound 7, dimethyl((2S,2′S)-((2S,2′S)-2,2′-(5,5′-(naphtho[1,2-b]thiophene-2,7-diyl)bis(1H-imidazole-5,2-diyl))bis(pyrrolidine-2,1-diyl))bis(3-methyl-1-oxobutane-2,1-diyl))dicarbamate] | 0.001 to 0.999 nM | 0.001 to 0.999 nM
3 | COC(=O)N[C@H](C(=O)N1C(c2ncc(-c3ccc4c(ccc5cc(-c6cnc(C7[C@H]8CC[C@H](C8)N7C(=O)[C@@H](NC(=O)OC)C(C)C)[nH]6)sc54)c3)[nH]2)[C@H]2CC[C@@H]1C2)C(C)C (stereo partly drawn) [Compound 10, dimethyl((2S,2′S)-((1R,1′R,3S,3′S,4S,4′S)-3,3′-(5,5′-(naphtho[1,2-b]thiophene-2,7-diyl)bis(1H-imidazole-5,2-diyl))bis(2-azabicyclo[2.2.1]heptane-3,2-diyl))bis(3-methyl-1-oxobutane-2,1-diyl))dicarbamate] | 0.001 to 0.999 nM | 0.001 to 0.999 nM
4 | COC(=O)N[C@H](C(=O)N1CCC[C@H]1c1ncc(-c2ccc3c(c2)CCCc2cc(-c4cnc([C@@H]5CCCN5C(=O)[C@@H](NC(=O)OC)C(C)C)[nH]4)sc2-3)[nH]1)C(C)C [Compound 8, dimethyl((2S,2′S)-((2S,2′S)-2,2′-(5,5′-(5,6-dihydro-4H-benzo[6,7]cyclohepta[1,2-b]thiophene-2,8-diyl)bis(1H-imidazole-5,2-diyl))bis(pyrrolidine-2,1-diyl))bis(3-methyl-1-oxobutane-2,1-diyl))dicarbamate] | 0.001 to 0.999 nM | 0.001 to 0.999 nM
5 | COC(=O)N[C@H](C(=O)N1CCC[C@H]1c1nc(Cl)c(-c2ccc3c(c2)CCc2c-3sc(-c3[nH]c([C@@H]4CCCN4C(=O)[C@@H](NC(=O)OC)C(C)C)nc3Cl)c2Cl)[nH]1)C(C)C [Compound 6, dimethyl((2S,2′S)-((2S,2′S)-2,2′-(5,5′-(3-chloro-4,5-dihydronaphtho[1,2-b]thiophene-2,7-diyl)bis(4-chloro-1H-imidazole-5,2-diyl))bis(pyrrolidine-2,1-diyl))bis(3-methyl-1-oxobutane-2,1-diyl))dicarbamate] | 0.001 to 0.999 nM | 0.001 to 0.999 nM
6 | COC(=O)N[C@H](C(=O)N1CCC[C@H]1c1ncc(-c2ccc3c(c2)OCCc2cc(-c4cnc([C@@H]5CCCN5C(=O)[C@@H](NC(=O)OC)C(C)C)[nH]4)sc2-3)[nH]1)C(C)C [Compound 2, dimethyl((2S,2′S)-((2S,2′S)-2,2′-(5,5′-(4,5-dihydrobenzo[b]thieno[2,3-d]oxepine-2,8-diyl)bis(1H-imidazole-5,2-diyl))bis(pyrrolidine-2,1-diyl))bis(3-methyl-1-oxobutane-2,1-diyl))dicarbamate] | 0.001 to 0.999 nM | 1 to 100 nM
7 | COC(=O)N[C@H](C(=O)N1CCC[C@H]1c1ncc(-c2ccc3c(ccc4cc(-c5cnc([C@@H]6[C@H]7CC[C@H](C7)N6C(=O)[C@@H](NC(=O)OC)C(C)C)[nH]5)sc43)c2)[nH]1)C(C)C [Compound 11, methyl((S)-1-((S)-2-(5-(2-(2-((1R,3S,4S)-2-((S)-2-(methoxycarbonyl)amino-3-methylbutanoyl)-2-azabicyclo[2.2.1]heptan-3-yl)-1H-imidazol-5-yl)naphtho[1,2-b]thiophen-7-yl)-1H-imidazol-2-yl)pyrrolidin-1-yl)-3-methyl-1-oxobutan-2-yl)carbamate] | 0.001 to 0.999 nM | 0.001 to 0.999 nM
8 | COC(=O)N[C@H](C(=O)N1CCC[C@H]1c1nc(Cl)c(-c2ccc3c(c2)OCCc2cc(-c4[nH]c([C@@H]5CCCN5C(=O)[C@@H](NC(=O)OC)C(C)C)nc4Cl)sc2-3)[nH]1)C(C)C [Compound 3, dimethyl((2S,2′S)-((2S,2′S)-2,2′-(5,5′-(4,5-dihydrobenzo[b]thieno[2,3-d]oxepine-2,8-diyl)bis(4-chloro-1H-imidazole-5,2-diyl))bis(pyrrolidine-2,1-diyl))bis(3-methyl-1-oxobutane-2,1-diyl))dicarbamate] | 0.001 to 0.999 nM | 1 to 100 nM
9 | COC(=O)N[C@H](C(=O)N1CCC[C@H]1c1ncc(-c2ccc3c(ccc4sc(-c5cnc([C@@H]6CCCN6C(=O)[C@@H](NC(=O)OC)C(C)C)[nH]5)nc43)c2)[nH]1)C(C)C [Compound 4, dimethyl((2S,2′S)-((2S,2′S)-2,2′-(5,5′-(naphtho[1,2-d]thiazole-2,7-diyl)bis(1H-imidazole-5,2-diyl))bis(pyrrolidine-2,1-diyl))bis(3-methyl-1-oxobutane-2,1-diyl))dicarbamate] | 0.001 to 0.999 nM | > 100 nM
10 | COC(=O)N[C@H](C(=O)N1CCC[C@H]1c1nc(Cl)c(-c2ccc3c(c2)CCCc2cc(-c4[nH]c([C@@H]5CCCN5C(=O)[C@@H](NC(=O)OC)C(C)C)nc4Cl)sc2-3)[nH]1)C(C)C [Compound 9, dimethyl((2S,2′S)-((2S,2′S)-2,2′-(5,5′-(5,6-dihydro-4H-benzo[6,7]cyclohepta[1,2-b]thiophene-2,8-diyl)bis(4-chloro-1H-imidazole-5,2-diyl))bis(pyrrolidine-2,1-diyl))bis(3-methyl-1-oxobutane-2,1-diyl))dicarbamate] | 0.001 to 0.999 nM | 0.001 to 0.999 nM
11 | COC(=O)N[C@H](C(=O)N1CCC[C@H]1c1ncc(-c2ccc3c(c2)OCc2cc(-c4cnc([C@@H]5CCCN5C(=O)[C@@H](NC(=O)OC)C(C)C)[nH]4)sc2-3)[nH]1)C(C)C [Compound 1, dimethyl((2S,2′S)-((2S,2′S)-2,2′-(5,5′-(4H-thieno[3,2-c]chromene-2,7-diyl)bis(1H-imidazole-5,2-diyl))bis(pyrrolidine-2,1-diyl))bis(3-methyl-1-oxobutane-2,1-diyl))dicarbamate] | 0.001 to 0.999 nM | 0.001 to 0.999 nM

From patent publication US9073942B2, “Antiviral compounds with a heterotricycle moiety” (Lupin Limited, priority 2012, dated 2015)
